For 13 compounds, IC50 results are on record in US12258327B2, “5-membered heteroaryl-containing aminopyridine compounds as EGFR inhibitors” (YUHAN CORPORATION, priority 2021, dated 2025).

Like-named read-outs stand apart in the source and are kept apart here.

The target in experiment [1] is EGFR del19/T790M/C797S (Homo sapiens, UniProt P00533, C797S/DEL746-750/T790M). In words: Biochemical EGFR kinase assay (Lance Ultra TR-FRET), triple mutant del19/T790M/C797S. Summed up: (§1)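 Kinase activity is measured by TR-FRET phosphopeptide detection. Compounds span 0.003 μM to 10 μM; the 1 h reaction at room temperature is quenched with EDTA, then labelled antibody (2 nM) is incubated 60 min before reading.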

The target in experiment [2] is EGFR L858R/T790M/C797S (Homo sapiens, UniProt P00533, C797S/L858R/T790M). In words: Biochemical EGFR kinase assay (Lance Ultra TR-FRET), triple mutant L858R/T790M/C797S. Summed up:
as §1

Experiment [3] deals with EGFR L858R/C797S (Homo sapiens, UniProt P00533, C797S/L858R). In words: Biochemical EGFR kinase assay (Lance Ultra TR-FRET), double mutant L858R/C797S. A digest of the protocol: as §1
Chain of EGFR L858R/C797S (P00533 25-1210 C797S/L858R): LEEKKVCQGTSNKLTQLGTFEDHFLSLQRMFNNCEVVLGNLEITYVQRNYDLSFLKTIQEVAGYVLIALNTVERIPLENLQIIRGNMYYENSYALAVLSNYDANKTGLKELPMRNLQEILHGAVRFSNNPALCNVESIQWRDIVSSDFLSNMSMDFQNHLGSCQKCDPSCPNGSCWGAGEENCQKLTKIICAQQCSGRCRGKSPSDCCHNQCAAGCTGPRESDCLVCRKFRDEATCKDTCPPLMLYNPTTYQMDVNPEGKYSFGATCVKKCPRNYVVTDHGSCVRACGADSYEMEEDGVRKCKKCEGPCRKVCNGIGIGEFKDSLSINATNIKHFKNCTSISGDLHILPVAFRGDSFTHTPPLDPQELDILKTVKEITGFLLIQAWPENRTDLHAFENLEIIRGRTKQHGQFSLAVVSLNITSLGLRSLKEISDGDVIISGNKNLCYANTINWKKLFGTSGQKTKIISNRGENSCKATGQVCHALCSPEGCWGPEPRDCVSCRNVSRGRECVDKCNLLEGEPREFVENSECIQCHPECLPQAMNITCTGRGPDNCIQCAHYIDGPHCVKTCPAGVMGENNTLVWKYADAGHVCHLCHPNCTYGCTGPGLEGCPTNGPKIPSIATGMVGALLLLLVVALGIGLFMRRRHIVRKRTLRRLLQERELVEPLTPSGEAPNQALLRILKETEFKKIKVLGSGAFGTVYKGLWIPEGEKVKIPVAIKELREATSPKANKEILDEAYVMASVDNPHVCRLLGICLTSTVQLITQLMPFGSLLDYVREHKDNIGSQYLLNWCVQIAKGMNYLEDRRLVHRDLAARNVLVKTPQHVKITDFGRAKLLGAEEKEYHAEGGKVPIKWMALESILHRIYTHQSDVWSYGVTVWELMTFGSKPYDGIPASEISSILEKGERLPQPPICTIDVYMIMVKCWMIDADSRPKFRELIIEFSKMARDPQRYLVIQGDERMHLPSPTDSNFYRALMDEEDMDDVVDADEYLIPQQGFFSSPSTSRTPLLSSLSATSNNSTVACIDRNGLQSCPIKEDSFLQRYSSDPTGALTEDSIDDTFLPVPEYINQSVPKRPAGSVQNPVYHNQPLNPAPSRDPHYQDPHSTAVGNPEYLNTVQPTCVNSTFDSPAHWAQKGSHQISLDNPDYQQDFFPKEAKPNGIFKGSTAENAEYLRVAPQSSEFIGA
Experiment [4] deals with EGFR del19/C797S (Homo sapiens, UniProt P00533, C797S/DEL746-750). In words: Biochemical EGFR kinase assay (Lance Ultra TR-FRET), double mutant del19/C797S. Summed up: as §1
Chain of EGFR del19/C797S (P00533 with tags, fused parts or gaps DEL746-750/C797S): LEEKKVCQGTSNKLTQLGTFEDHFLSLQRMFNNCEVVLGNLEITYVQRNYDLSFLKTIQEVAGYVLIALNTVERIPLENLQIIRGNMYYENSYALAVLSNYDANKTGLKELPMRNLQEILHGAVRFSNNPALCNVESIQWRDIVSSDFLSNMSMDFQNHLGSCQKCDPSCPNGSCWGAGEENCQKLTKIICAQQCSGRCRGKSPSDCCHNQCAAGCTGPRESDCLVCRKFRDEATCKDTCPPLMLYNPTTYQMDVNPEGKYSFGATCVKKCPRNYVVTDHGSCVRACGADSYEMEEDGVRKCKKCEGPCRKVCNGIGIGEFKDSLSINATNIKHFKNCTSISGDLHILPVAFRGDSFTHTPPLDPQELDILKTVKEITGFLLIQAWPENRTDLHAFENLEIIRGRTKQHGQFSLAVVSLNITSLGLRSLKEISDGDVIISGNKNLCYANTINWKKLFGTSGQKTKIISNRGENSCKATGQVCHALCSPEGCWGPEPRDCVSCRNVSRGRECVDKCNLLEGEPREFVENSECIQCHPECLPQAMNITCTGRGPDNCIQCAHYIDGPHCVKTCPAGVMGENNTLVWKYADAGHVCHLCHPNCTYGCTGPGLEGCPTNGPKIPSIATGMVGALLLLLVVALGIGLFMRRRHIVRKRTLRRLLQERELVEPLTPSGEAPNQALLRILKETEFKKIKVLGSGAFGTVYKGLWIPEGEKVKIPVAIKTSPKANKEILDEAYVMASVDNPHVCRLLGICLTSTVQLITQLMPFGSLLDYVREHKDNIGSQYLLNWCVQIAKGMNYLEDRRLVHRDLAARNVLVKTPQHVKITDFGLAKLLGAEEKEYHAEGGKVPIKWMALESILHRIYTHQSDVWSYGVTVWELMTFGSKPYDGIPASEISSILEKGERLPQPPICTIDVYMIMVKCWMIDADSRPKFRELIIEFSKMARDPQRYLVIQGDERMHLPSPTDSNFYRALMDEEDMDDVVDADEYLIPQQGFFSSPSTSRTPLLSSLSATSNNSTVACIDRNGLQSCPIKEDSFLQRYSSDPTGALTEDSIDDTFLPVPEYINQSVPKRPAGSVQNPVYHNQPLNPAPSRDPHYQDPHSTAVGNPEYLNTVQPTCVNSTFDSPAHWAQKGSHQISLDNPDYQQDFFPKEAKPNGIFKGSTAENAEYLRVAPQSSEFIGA
The target in experiment [5] is EGFR wildtype (WT) (Homo sapiens, UniProt P00533). In words: Biochemical EGFR kinase assay (Lance Ultra TR-FRET), wildtype. Summed up:
as §1

Where [6] appears, read: Km ATP, read-out: IC50 del19/T790M/C797S (nM) Km ATP.
Where [7] appears, read: Km ATP, read-out: IC50 L858R/T790M/C797S (nM) Km ATP.
The mark [8] stands for this setting: Km ATP, read-out: IC50 L858R/C797S (nM) Km ATP.
[9] abbreviates: Km ATP, read-out: IC50 del19/C797S (nM) Km ATP.
Setting [10] is: Km ATP, read-out: IC50 WT (nM) Km ATP.
The mark [11] stands for this setting: IC50 del19/T790M/C797S (nM) 100 μM ATP, 100 μM ATP.
Where [12] appears, read: IC50 L858R/T790M/C797S (nM) 100 μM ATP, 100 μM ATP.
The mark [13] stands for this setting: IC50 L858R/C797S (nM) 100 μM ATP, 100 μM ATP.
Where [14] appears, read: IC50 del19/C797S (nM) 100 μM ATP, 100 μM ATP.
Where [15] appears, read: IC50 WT (nM) 100 μM ATP, 100 μM ATP.
Where [16] appears, read: Km ATP, read-out: IC50 del19/T790M/C797S, Km ATP.
Where [17] appears, read: Km ATP, read-out: IC50 L858R/T790M/C797S, Km ATP.
[18] abbreviates: Km ATP, read-out: IC50 L858R/C797S, Km ATP.
Setting [19] is: Km ATP, read-out: IC50 del19/C797S, Km ATP.
Setting [20] is: Km ATP, read-out: IC50 WT, Km ATP.

Chain of EGFR wildtype (WT) (P00533 25-1210): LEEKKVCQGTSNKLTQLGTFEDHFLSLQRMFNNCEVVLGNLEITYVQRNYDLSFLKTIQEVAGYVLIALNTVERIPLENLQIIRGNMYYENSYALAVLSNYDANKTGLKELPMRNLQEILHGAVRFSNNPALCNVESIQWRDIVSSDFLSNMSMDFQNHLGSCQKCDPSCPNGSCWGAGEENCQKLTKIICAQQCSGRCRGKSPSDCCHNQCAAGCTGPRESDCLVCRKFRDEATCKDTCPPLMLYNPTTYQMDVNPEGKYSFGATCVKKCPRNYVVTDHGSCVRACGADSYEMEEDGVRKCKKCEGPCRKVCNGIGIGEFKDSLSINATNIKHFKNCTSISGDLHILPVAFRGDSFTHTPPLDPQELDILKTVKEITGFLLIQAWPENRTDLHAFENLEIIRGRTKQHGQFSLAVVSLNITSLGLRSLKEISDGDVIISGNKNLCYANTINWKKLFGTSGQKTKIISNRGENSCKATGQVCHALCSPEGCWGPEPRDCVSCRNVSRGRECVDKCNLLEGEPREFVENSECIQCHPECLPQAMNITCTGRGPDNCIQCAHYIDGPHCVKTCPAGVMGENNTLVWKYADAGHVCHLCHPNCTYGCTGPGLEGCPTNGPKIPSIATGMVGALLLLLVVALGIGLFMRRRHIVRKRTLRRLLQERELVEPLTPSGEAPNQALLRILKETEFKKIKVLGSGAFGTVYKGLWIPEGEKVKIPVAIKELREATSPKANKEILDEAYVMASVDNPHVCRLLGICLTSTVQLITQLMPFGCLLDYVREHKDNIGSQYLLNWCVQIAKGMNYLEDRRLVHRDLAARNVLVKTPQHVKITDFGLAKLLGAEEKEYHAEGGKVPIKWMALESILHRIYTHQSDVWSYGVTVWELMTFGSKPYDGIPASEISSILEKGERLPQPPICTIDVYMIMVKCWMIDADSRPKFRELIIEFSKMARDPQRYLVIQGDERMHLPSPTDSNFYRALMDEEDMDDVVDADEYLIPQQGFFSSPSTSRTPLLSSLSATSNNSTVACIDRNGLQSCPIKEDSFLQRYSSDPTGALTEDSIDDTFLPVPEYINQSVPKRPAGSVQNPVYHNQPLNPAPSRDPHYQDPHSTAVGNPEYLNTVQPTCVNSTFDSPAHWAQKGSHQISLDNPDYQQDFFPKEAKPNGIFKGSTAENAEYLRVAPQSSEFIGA
Chain of EGFR L858R/T790M/C797S (P00533 25-1210 T790M/C797S/L858R): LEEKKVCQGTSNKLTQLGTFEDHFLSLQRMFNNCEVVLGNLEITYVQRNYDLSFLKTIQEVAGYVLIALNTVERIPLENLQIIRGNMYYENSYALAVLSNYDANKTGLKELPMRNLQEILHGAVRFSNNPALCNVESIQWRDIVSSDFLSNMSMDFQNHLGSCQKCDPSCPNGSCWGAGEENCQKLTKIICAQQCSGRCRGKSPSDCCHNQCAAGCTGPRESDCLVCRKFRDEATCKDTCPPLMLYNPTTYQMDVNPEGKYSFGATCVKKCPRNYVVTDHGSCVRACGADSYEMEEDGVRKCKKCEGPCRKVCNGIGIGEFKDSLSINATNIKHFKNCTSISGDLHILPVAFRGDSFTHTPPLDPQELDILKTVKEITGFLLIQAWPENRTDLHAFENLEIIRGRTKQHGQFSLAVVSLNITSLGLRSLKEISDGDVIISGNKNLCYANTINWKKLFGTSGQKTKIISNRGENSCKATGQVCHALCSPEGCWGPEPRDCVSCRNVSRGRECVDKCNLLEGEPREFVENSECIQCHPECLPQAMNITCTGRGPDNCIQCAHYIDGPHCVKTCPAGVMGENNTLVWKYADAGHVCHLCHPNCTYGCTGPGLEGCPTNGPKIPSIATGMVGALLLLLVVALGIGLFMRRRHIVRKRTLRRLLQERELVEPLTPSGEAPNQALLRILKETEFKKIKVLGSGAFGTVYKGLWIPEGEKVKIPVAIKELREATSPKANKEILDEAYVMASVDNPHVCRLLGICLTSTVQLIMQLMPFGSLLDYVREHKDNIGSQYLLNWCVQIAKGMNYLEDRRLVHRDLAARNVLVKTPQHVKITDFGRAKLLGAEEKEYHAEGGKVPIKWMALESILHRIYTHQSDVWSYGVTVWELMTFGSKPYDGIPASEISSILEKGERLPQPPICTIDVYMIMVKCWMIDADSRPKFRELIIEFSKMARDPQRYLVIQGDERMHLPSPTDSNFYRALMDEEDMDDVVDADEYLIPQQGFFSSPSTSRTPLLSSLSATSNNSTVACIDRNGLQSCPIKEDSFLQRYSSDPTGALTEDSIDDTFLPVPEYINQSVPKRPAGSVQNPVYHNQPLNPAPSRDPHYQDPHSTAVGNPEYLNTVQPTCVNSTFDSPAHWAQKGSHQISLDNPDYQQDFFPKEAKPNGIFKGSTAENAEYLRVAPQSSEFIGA

As for `COc1ccc(-c2nccc(Nc3cc(N[C@H]4CC[C@@](C)(O)CC4)c(-c4ccn(C(F)F)n4)cn3)n2)c(F)n1` [Example 166, (1s,4s)-4-((5-(1-(Difluoromethyl)-1H-pyrazol-3-yl)-2-((2-(2-fluoro-6-methoxypyridin-3-yl)pyrimidin-4-yl)amino)pyridin-4-yl)amino)-1-methylcyclohexan-1-ol], the IC50 in experiment [1] (setting [6]) is 7.2 nM; in experiment [2] (setting [7]), 3.6 nM; in experiment [3] (setting [8]), 198 nM; in experiment [4] (setting [9]) it was 737 nM; in experiment [5] (setting [10]), 503 nM.
On to `CN(C)C[C@H]1C[C@H](CNc2cc(Nc3ccnc(-c4cnn(S(=O)(=O)C5CC5)c4)n3)ncc2-c2ccn(C)n2)C1` [Example 239, N^2-(2-(1-(Cyclopropylsulfonyl)-1H-pyrazol-4-yl)pyrimidin-4-yl)-N^4-(((1r,3r)-3-((dimethylamino)methyl)cyclobutyl)methyl)-5-(1-methyl-1H-pyrazol-3-yl)pyridine-2,4-diamine], for which the IC50 was 0.3 nM in experiment [1] (setting [6]); 0.1 nM in experiment [2] (setting [7]); 3.6 nM in experiment [3] (setting [8]); 4.6 nM in experiment [4] (setting [9]); 10.1 nM in experiment [5] (setting [10]).
For the compound `CC(O)C(C)(C)Nc1cc(Nc2ccnc(-c3cnn(S(=O)(=O)C4CC4)c3)n2)ncc1-c1ccn(C)n1` (centres unmarked) [Example 95, 3-((2-((2-(1-(Cyclopropylsulfonyl)-1H-pyrazol-4-yl)pyrimidin-4-yl)amino)-5-(1-methyl-1H-pyrazol-3-yl)pyridin-4-yl)amino)-3-methylbutan-2-ol], the IC50 is 1.3 nM in experiment [1] (setting [11]); 1.9 nM in experiment [2] (setting [12]); 45.2 nM in experiment [3] (setting [13]); 57.7 nM in experiment [4] (setting [14]); more than 10000 nM in experiment [5] (setting [15]).
`CS(=O)(=O)c1ccn(-c2cnc(Nc3ccnc(-c4cnn(S(=O)(=O)C5CC5)c4)n3)cc2N[C@H]2CC[C@@](C)(O)CC2)n1` [Example 183, (1s,4s)-4-((2-((2-(1-(Cyclopropylsulfonyl)-1H-pyrazol-4-yl)pyrimidin-4-yl)amino)-5-(3-(methylsulfonyl)-1H-pyrazol-1-yl)pyridin-4-yl)amino)-1-methylcyclohexan-1-ol]: the IC50 in experiment [1] (setting [6]) amounted to 0.8 nM; in experiment [2] (setting [7]), 0.6 nM; in experiment [3] (setting [8]), 37.1 nM; in experiment [4] (setting [9]), 42.8 nM; in experiment [5] (setting [10]), 624 nM.
With `Cc1nn(CC(F)(F)F)cc1-c1cc(Nc2ncc(-c3ccn(CC(F)(F)F)n3)c(N[C@H]3CC[C@@](C)(O)CC3)n2)ccn1` [Example 370, (1s,4s)-1-Methyl-4-((2-((2-(3-methyl-1-(2,2,2-trifluoroethyl)-1H-pyrazol-4-yl)pyridin-4-yl)amino)-5-(1-(2,2,2-trifluoroethyl)-1H-pyrazol-3-yl)pyrimidin-4-yl)amino)cyclohexan-1-ol], the IC50 came out at 3.4 nM in experiment [1] (setting [16]); 1.2 nM in experiment [2] (setting [17]); 8.3 nM in experiment [3] (setting [18]); 17.4 nM in experiment [4] (setting [19]); 147 nM in experiment [5] (setting [20]).
On to `CC(C)(O)[C@H]1CC[C@@H](Nc2cc(Nc3ccnc(-c4cnn(S(=O)(=O)C5CC5)c4)n3)ncc2-c2csc(C(F)(F)F)n2)CC1` [Example 49, 2-((1s,4s)-4-((2-((2-(1-(Cyclopropylsulfonyl)-1H-pyrazol-4-yl)pyrimidin-4-yl)amino)-5-(2-(trifluoromethyl)thiazol-4-yl)pyridin-4-yl)amino)cyclohexyl)propan-2-ol], for which the IC50 in experiment [1] (read-out: IC50 del19/T790M/C797S (nM) 100 μM ATP, 100 μM ATP) is 18.8 nM; in experiment [2] (read-out: IC50 L858R/T790M/C797S (nM) 100 μM ATP, 100 μM ATP) it was 28.7 nM; in experiment [3] (read-out: IC50 L858R/C797S (nM) 100 μM ATP, 100 μM ATP) it was 278 nM; in experiment [4] (read-out: IC50 del19/C797S (nM) 100 μM ATP, 100 μM ATP) it was 200 nM; in experiment [5] (read-out: IC50 WT (nM) 100 μM ATP, 100 μM ATP) it was more than 10000 nM.
On to `C[C@]1(O)CC[C@@H](Nc2cc(Nc3ccnc(-c4cnn(S(=O)(=O)C5CC5)c4)n3)nnc2-c2ccn(CC(F)(F)F)n2)CC1` [Example 374, (1s,4s)-4-((6-((2-(1-(Cyclopropylsulfonyl)-1H-pyrazol-4-yl)pyrimidin-4-yl)amino)-3-(1-(2,2,2-trifluoroethyl)-1H-pyrazol-3-yl)pyridazin-4-yl)amino)-1-methylcyclohexan-1-ol], for which the IC50 in experiment [1] (setting [16]) turned out to be 0.3 nM; in experiment [2] (setting [17]), 0.6 nM; in experiment [3] (setting [18]) it was 25.9 nM; in experiment [4] (setting [19]) it was 241 nM; in experiment [5] (setting [20]), 1050 nM.
As to `O=C1NCCCC1Nc1cc(Nc2ccnc(-c3cnn(S(=O)(=O)C4CC4)c3)n2)ncc1-c1ccn(C(F)F)n1` (centres unmarked) [Example 38, 3-((2-((2-(1-(Cyclopropylsulfonyl)-1H-pyrazol-4-yl)pyrimidin-4-yl)amino)-5-(1-(difluoromethyl)-1H-pyrazol-3-yl)pyridin-4-yl)amino)piperidin-2-one], the IC50 was found to be 0.5 nM in experiment [1] (setting [11]); 0.5 nM in experiment [1] (setting [6]); 2.5 nM in experiment [2] (setting [12]); 0.3 nM in experiment [2] (setting [7]); 182 nM in experiment [3] (setting [13]); 9.1 nM in experiment [3] (setting [8]). Besides, the IC50 in experiment [4] (setting [14]) is 24.8 nM; in experiment [4] (setting [9]) it was 23.7 nM; in experiment [5] (setting [15]), more than 10000 nM; in experiment [5] (setting [10]), 60.7 nM.
Regarding `C[C@H](CCF)Nc1cc(Nc2ccnc(-c3cnn(S(=O)(=O)C4CC4)c3)n2)ncc1-c1ccn(C(F)F)n1` [Example 212, (R)—N^2-(2-(1-(Cyclopropylsulfonyl)-1H-pyrazol-4-yl)pyrimidin-4-yl)-5-(1-(difluoromethyl)-1H-pyrazol-3-yl)-N^4-(4-fluorobutan-2-yl)pyridine-2,4-diamine], the IC50 came to 2.1 nM in experiment [1] (setting [6]); 2.3 nM in experiment [2] (setting [7]); 38.5 nM in experiment [3] (setting [8]); 72 nM in experiment [4] (setting [9]); 294 nM in experiment [5] (setting [10]).
Taken in the same sequence, the figures for `CCC(C)Nc1cc(Nc2ccnc(-c3cnn(S(=O)(=O)C4CC4)c3)n2)ncc1-c1ccn(CC(F)F)n1` (centres unmarked) [Example 250, N^4-(sec-Butyl)-N^2-(2-(1-(cyclopropylsulfonyl)-1H-pyrazol-4-yl)pyrimidin-4-yl)-5-(1-(2,2-difluoroethyl)-1H-pyrazol-3-yl)pyridine-2,4-diamine] were 0.9 nM, 0.9 nM, 4.4 nM, 63.8 nM and 56.1 nM.
For `O=S(=O)(C1CC1)n1cc(-c2nccc(Nc3cc(N[C@H]4CC[C@@H](F)CC4)c(-c4ccn(C(F)(F)F)n4)cn3)n2)cn1` [Example 286, N^2-(2-(1-(Cyclopropylsulfonyl)-1H-pyrazol-4-yl)pyrimidin-4-yl)-N^4-((1s,4s)-4-fluorocyclohexyl)-5-(1-(trifluoromethyl)-1H-pyrazol-3-yl)pyridine-2,4-diamine], the IC50 in experiment [1] (setting [6]) was 20.2 nM; in experiment [2] (setting [7]), 4.8 nM; in experiment [3] (setting [8]) it was 188 nM; in experiment [4] (setting [9]), 90.9 nM; in experiment [5] (setting [10]), 1010 nM.
On to `O=S(=O)(C1CC1)n1cc(-c2nccc(Nc3cc(NC[C@H]4CC[C@@H](O)C4)c(-c4ccn(CC(F)(F)F)n4)cn3)n2)cn1` [Example 268, (1R,3S)-3-(((2-((2-(1-(Cyclopropylsulfonyl)-1H-pyrazol-4-yl)pyrimidin-4-yl)amino)-5-(1-(2,2,2-trifluoroethyl)-1H-pyrazol-3-yl)pyridin-4-yl)amino)methyl)cyclopentan-1-ol], for which the IC50 in experiment [1] (setting [11]) was found to be 0.6 nM; in experiment [1] (setting [6]), 2.5 nM; in experiment [2] (setting [12]), 0.6 nM; in experiment [2] (setting [7]), 0.3 nM; in experiment [3] (setting [13]), 10.7 nM; in experiment [3] (setting [8]), 3.2 nM. For the same compound, the IC50 was 200 nM in experiment [4] (setting [14]), 7.6 nM in experiment [4] (setting [9]), more than 10000 nM in experiment [5] (setting [15]) and 74.4 nM in experiment [5] (setting [10]).
As to `O=S(=O)(C1CC1)n1cc(-c2nccc(Nc3cc(NC4CC5CC(O)C4C5)c(-c4ccn(C(F)F)n4)cn3)n2)cn1` (centres unmarked) [Example 39, 6-((2-((2-(1-(Cyclopropylsulfonyl)-1H-pyrazol-4-yl)pyrimidin-4-yl)amino)-5-(1-(difluoromethyl)-1H-pyrazol-3-yl)pyridin-4-yl)amino)bicycle[2.2.1]heptan-2-ol], the IC50 in experiment [1] (setting [11]) amounted to 3.6 nM; in experiment [1] (setting [6]) it was 1.6 nM; in experiment [2] (setting [12]) it was 7.9 nM; in experiment [2] (setting [7]), 1.2 nM; in experiment [3] (setting [13]), 262 nM; in experiment [3] (setting [8]), 27.8 nM. Besides, the IC50 is 17.6 nM in experiment [4] (setting [14]), 7.2 nM in experiment [4] (setting [9]), more than 10000 nM in experiment [5] (setting [15]) and 143 nM in experiment [5] (setting [10]).
